Experimental findings from PubChem BioAssay (NCI) are described below.

Holding throughout (assay): growth of human tumour cells (NCI), 48 h
The test system of assay [1] is HOP-62 NSCLC.
The subject of assay [2] is RPMI-8226 leukemia.
In assay [3] the test system is SK-OV-3 ovarian.
Assay [4] deals with EKVX NSCLC.
Assay [5] relates to BT-549 breast.
In assay [6] the test system is NCI-H460 lung.
In assay [7] the test system is KM12 colon.
In assay [8] the test system is SK-MEL-5 melanoma.
In assay [9] the test system is K-562 leukemia.
Assay [10] has as its system RXF 393 renal.

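48-hour exposure; five concentrations; linearly interpolated endpoints. At the GI50, growth is halved. TGI: concentration producing complete growth inhibition.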 Where only a bound is given, the exact number is not on record here.

`C/C(=C\c1csc(C)n1)[C@@H]1C[C@@H]2O[C@]2(C)CCC[C@H](C)[C@H](O)[C@@H](C)C(=O)C(C)(C)[C@@H](O)CC(=O)N1`: the GI50 in assay [1] was 0.000352 µM; in assay [2], less than 1e-05 µM; in assay [3], 0.00477 µM; in assay [4], 0.000337 µM; in assay [5] it was 0.000187 µM; in assay [6], 0.000109 µM. Besides, the GI50 in [7] was 0.000141 µM; in [8], 0.000137 µM; in assay [9], 0.000106 µM. Also, the TGI was 0.000508 µM in assay [1]; less than 1e-05 µM in [2]; 0.0595 µM in assay [3]; 0.000626 µM in [4]; 0.000416 µM in assay [5]; 0.00036 µM in assay [6]. Also, the TGI in assay [7] came out at 0.000354 µM; in assay [8] it was 0.000337 µM; in [9] it was 0.00033 µM.

In the case of `COc1cc2c(Oc3ccc(-c4cnc(Nc5ccc(F)cc5)n(C)c4=O)cc3F)ccnc2cc1OCCCN1CCOCC1`, the GI50 in assay [2] is 1.84 µM; in assay [3], 1.84 µM; in assay [5], 1.86 µM; in assay [6] it was 1.51 µM; in [8] it was 1.45 µM; in [10], 0.759 µM. In addition, the TGI in assay [2] turned out to be 4.71 µM; in assay [3] it was 3.39 µM; in [5], 3.49 µM; in [6] it was 3.22 µM; in [8], 2.77 µM; in assay [10] it was 2.04 µM.

Regarding `FC(F)(F)c1cccc(CNC2CCN(CCc3ccccc3)CC2)c1`, the GI50 in assay [1] was 37.5 µM; in assay [2], 22.6 µM; in assay [3], 38.9 µM; in assay [5], 24.8 µM; in assay [6] it was 19.1 µM; in assay [7], 22.5 µM. Further, the GI50 was 12.3 µM in assay [8], 15.5 µM in [9] and 12.9 µM in assay [10]. The TGI was more than 100 µM in [1]; 51.5 µM in assay [2]; more than 100 µM in [3]; more than 100 µM in assay [5]; 39.6 µM in [6]; 56.6 µM in [7]. The TGI in assay [8] worked out at 24.7 µM; in [9], 42.9 µM; in assay [10] it was 39.5 µM.

Take `COc1cc(NC(=O)COc2ccccc2)c(C(N)=O)cc1OC`: the GI50 in assay [1] is 1.75 µM; in [2] it was 2.27 µM; in assay [3], 3.58 µM; in [5], 0.77 µM; in [6] it was 0.529 µM; in [7] it was 0.442 µM. The values for the GI50 in assay [8], in assay [9] and in [10] were 0.766 µM, 0.31 µM and 1.69 µM, respectively. Besides, the TGI in assay [1] is 24.3 µM; in assay [2] it was more than 100 µM; in assay [3], 22.7 µM; in assay [5], more than 100 µM; in [6], more than 100 µM; in assay [7] it was more than 100 µM. In addition, the TGI in [8] was more than 100 µM; in [9] it was more than 100 µM; in assay [10], 9.52 µM.

`O=C(NO)c1ccc(CNc2cccc3nc(C4CC4)n(-c4ccccc4)c(=O)c23)cc1`: the GI50 is 1.89 µM in assay [1]; 2.69 µM in assay [2]; 2.15 µM in [3]; 2.55 µM in assay [4]; 3.24 µM in assay [5]; 1.9 µM in [6]. Further, the GI50 in assay [8] is 2.15 µM; in assay [9] it was 2.89 µM; in [10], 1.42 µM. Further, the TGI in [1] was determined as 4.72 µM; in assay [2] it was 11.3 µM; in assay [3], 5.4 µM; in assay [4], 7.43 µM; in assay [5] it was 14.3 µM; in assay [6], 5.65 µM. In addition, the TGI is 4.8 µM in [8], more than 100 µM in assay [9] and 3.14 µM in assay [10].

For `c1cc(OCCCCCOc2cccc(-c3nc4ccccc4[nH]3)c2)cc(-c2nc3ccccc3[nH]2)c1`, the GI50 was 3.58 µM in assay [1]; 2.51 µM in [3]; 2.21 µM in [4]; 1.72 µM in [5]; 2.6 µM in [6]; 2.69 µM in assay [7]. Also, in assay [8], the GI50 is 1.68 µM. For the same compound, the TGI in [1] is more than 100 µM; in [3], 18.1 µM; in assay [4] it was 6.97 µM; in assay [5], 5 µM; in assay [6], more than 100 µM; in assay [7], more than 100 µM. The compound further had a TGI in [8] of 3.08 µM.

As to `COc1cc(/C=C/C(=O)c2nc3cc(F)ccc3nc2C)cc(OC)c1OC`, the GI50 in [1] was more than 27.8 µM; in assay [2], 0.327 µM; in [3] it was more than 100 µM; in assay [4] it was more than 78.7 µM; in assay [5], 8.12 µM; in assay [6] it was 4.05 µM. Besides, the results for the GI50 in [7], in [8] and in assay [9] were 3.49 µM, 5.04 µM and 2.01 µM, respectively. Besides, the TGI in [1] was more than 100 µM; in [2], 3.07 µM; in [3], more than 100 µM; in assay [4], more than 100 µM; in assay [5], more than 100 µM; in [6], more than 100 µM. The TGI was more than 100 µM in assay [7], more than 100 µM in assay [8] and more than 23.9 µM in assay [9].

On to `O=c1c(Oc2ccc(F)cc2F)cc2cnc(NC3CCOCC3)nc2n1C1CC1`, for which the GI50 in [1], in assay [2], in assay [3], in assay [5], in [6] and in [7] was more than 25 µM in each case. Further, the GI50 in [8] is more than 25 µM; in assay [9], more than 25 µM; in assay [10], more than 17.1 µM. Besides, the TGI in assay [1], in assay [2], in assay [3], in [5], in assay [6] and in [7] was more than 25 µM each time. In addition, the TGI in [8], in [9] and in assay [10] was more than 25 µM each time.

For the compound `O=[N+]([O-])c1ccc(/C=C(/c2ccc([N+](=O)[O-])o2)S(=O)(=O)c2ccccc2)cc1`, the TGI in assay [1] is more than 100 µM; in assay [2], 31.4 µM; in assay [3], more than 100 µM; in assay [5], more than 100 µM; in assay [6] it was more than 100 µM; in assay [7], more than 100 µM. For the same compound, the TGI in [8] is 34.3 µM; in [9], more than 100 µM; in assay [10] it was more than 100 µM.

Take `COc1ccc(-c2c(Nc3ccccn3)nc3c(C4=CCCCC4)c(-c4ccccc4)[nH]n3c2=O)cc1`: the GI50 in assay [1] was 3.73 µM; in assay [2], 1.43 µM; in assay [3], 3.44 µM; in assay [4] it was 2.97 µM; in [5], 1.88 µM; in assay [6] it was 0.645 µM. Also, the GI50 was 3.7 µM in assay [7], 2.67 µM in assay [8] and 2.55 µM in assay [10]. Besides, the TGI in [1] worked out at 22.9 µM; in [2], 5.66 µM; in [3], 17.5 µM; in assay [4], 36.9 µM; in assay [5], 17.6 µM; in [6], 14 µM. Also, the results for the TGI in [7], in [8] and in [10] were more than 100 µM, more than 100 µM and 11.6 µM, respectively.

As for `N#C[Se]CCN1C(=O)c2ccccc2C1=O`, the GI50 in [1] was 2.17 µM; in assay [2], 3.35 µM; in assay [3], 3.46 µM; in assay [4], 2.88 µM; in assay [5], 1.66 µM; in assay [6], 2.25 µM. Further, the values for the GI50 in assay [7], in [9] and in assay [10] were 3.14 µM, 2.35 µM and 1.37 µM, respectively. Moreover, the TGI in [1] turned out to be 6.45 µM; in assay [2] it was 18.5 µM; in [3], 8.72 µM; in assay [4] it was 10.3 µM; in assay [5], 3.53 µM; in [6], 11.4 µM. In addition, the TGI was found to be 45.3 µM in assay [7], 15.5 µM in [9] and 2.86 µM in assay [10].

Consider `O=C1NC(=NCc2cccs2)O/C1=C\c1ccc2ncccc2c1`, for which the GI50 is 6.1 µM in assay [1]; 4.26 µM in assay [2]; 4.1 µM in [3]; 3.15 µM in assay [5]; 6.62 µM in assay [6]; 7.45 µM in [7]. In addition, the GI50 is 4.63 µM in [8], 7.31 µM in assay [9] and 4.63 µM in assay [10]. Moreover, the TGI in [1] is 18.9 µM; in assay [2], 17.3 µM; in assay [3], 12.2 µM; in assay [5], 13.3 µM; in [6] it was more than 25 µM; in assay [7], 24.5 µM. Besides, the TGI in assay [8] is 9.83 µM; in assay [9] it was more than 25 µM; in assay [10] it was 13.9 µM.

On to `COc1cc2c(cc1C)NC(=O)/C2=C\c1ccc(Oc2ccccc2)cc1`, for which the GI50 in [1] is 16.9 µM; in [2], 12.1 µM; in [3] it was 17 µM; in [4], 12.9 µM; in assay [5], 14.2 µM; in [7], 13.6 µM. In addition, the results for the GI50 in assay [8] and in assay [10] were 14.5 µM and 19.4 µM, respectively. The TGI was 31 µM in assay [1]; 31.6 µM in [2]; 31.4 µM in assay [3]; 27 µM in assay [4]; 28.3 µM in assay [5]; 30.4 µM in assay [7]. Also, the TGI in [8] came to 27.9 µM; in assay [10] it was 40.6 µM.

Consider `CN1S(=O)(=O)N(C)P12(N=P(CP(=NP13(N(C)S(=O)(=O)N1C)N(C)S(=O)(=O)N3C)(c1ccccc1)c1ccccc1)(c1ccccc1)c1ccccc1)N(C)S(=O)(=O)N2C`, for which the TGI in assay [1], in [2], in assay [3], in assay [4], in assay [6] and in assay [7] was more than 100 µM each time. Further, the TGI in [8], in assay [9] and in assay [10] was more than 100 µM throughout.

As to `COc1ccc(C(C)Nc2cc(OC)c(OC)c(OC)c2)cc1` (configuration not stated), the TGI in [1] was more than 83.2 µM; in assay [2], more than 100 µM; in assay [3] it was more than 62.5 µM; in [4] it was more than 100 µM; in [6], more than 25.5 µM; in [7], more than 100 µM. Besides, the TGI was more than 100 µM in assay [8], more than 45 µM in [9] and 20.9 µM in [10].

On to `C=CCN(CC=C)Cc1c[nH]c2ccccc12`, for which the GI50 in assay [2] is 17.8 µM; in [3] it was more than 100 µM; in assay [5], 2.31 µM; in [6], 21.8 µM; in assay [7], 32.2 µM; in assay [8], 6 µM. For the same compound, the GI50 in assay [9] was 50.2 µM. For the same compound, the TGI in [2] was more than 100 µM; in assay [3], more than 100 µM; in assay [5] it was 8.33 µM; in assay [6] it was 62.3 µM; in assay [7], more than 100 µM; in assay [8] it was 23.8 µM. Further, in assay [9], the TGI is more than 100 µM.

For the compound `COC1=CC(=O)C(O)=C(CC2(C)C(C)CCC3(C)C2CCCC3(C)C)C1=O` (configuration not stated), the TGI in assay [1] was 10.7 µM; in assay [2], 90.1 µM; in [3], more than 100 µM; in assay [4], 69.7 µM; in assay [6] it was 10.6 µM; in [7] it was 27.3 µM. Further, the TGI in [8] is 12.2 µM; in assay [9], more than 100 µM; in assay [10], 7.79 µM.

On to `Cc1cccc(Oc2ccc(Nc3ncnc4ccc(NC(=O)CN(C)C)cc34)cc2Cl)c1`, for which the GI50 in assay [1] is 1.89 µM; in assay [3], 0.828 µM; in assay [4], 0.512 µM; in assay [5], 2.4 µM; in assay [6] it was 1.81 µM; in assay [7], 2 µM. The GI50 in assay [8] was 1.64 µM; in assay [9], 1.91 µM; in assay [10], 1.61 µM. Also, the TGI came out at 4.16 µM in assay [1]; 7.24 µM in assay [3]; 4.19 µM in assay [4]; 8.45 µM in assay [5]; 3.35 µM in [6]; 4.09 µM in assay [7]. Moreover, the TGI in [8] was determined as 3.03 µM; in assay [9] it was 4.63 µM; in [10], 3.19 µM.
